Values quoted from earlier work, collected in US8221792B2 (Farnam Companies, Inc., priority 2005, dated 2012).
Structures can show the parent of a compound that is named as a salt. Where two headings read alike, the source gives them in different places.

Key:
[1] = in vivo
[2] = in human
[3] = in dogs

In the case of `NCC1(CC(=O)O)CCCCC1` [Gabapentin], the elimination half-life [1] is given as 5 to 7 h.

In the case of `COc1cccc([C@@]2(O)CCCC[C@@H]2CN(C)C)c1` (racemic) [tramadol, rac-(1R,2R)-2-(dimethylaminomethyl)-1-(3-methoxyphenyl)-cyclohexanol], the half-life [2] is given as 5.6 to 7.0 h and the half-life [3] is given as 0.8 to 1.7 h.

In the case of `COc1cccc(C2(O)CCCCC2CN(C)C)c1` (centres unmarked) [Tramadol HCl], the solubility in water is listed as “freely soluble” and the solubility in water (listed as tramadol hydrochloric acid salt) is listed as “highly water soluble”.
